Here are results for nine compounds from patent EP4725957A1, “GROUP OF CYCLIC ALKALINE LIPOPEPTIDE COMPOUNDS, AND PREPARATION METHOD THEREFOR AND USE THEREOF” (Institute of Medicinal Biotechnology, Chinese Academy of …, priority 2023, dated 2024).

Holding throughout (format): cell-based
Data set [1] concerns Klebsiella pneumoniae ATCC BAA-1705 (KPC). The note with it: ATCC BAA-1705. In a few lines: (§1)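 Colonies from 18-24 h plates were suspended to 0.5 McFarland and diluted in MH broth. Two-fold compound dilutions were then mixed 1:1 with inoculum to reach 64 to 0.03 mg/L and (2-4) × 10^5 CFU/mL. Plates were sealed and incubated at 35-37°C for 16-20 h, after which the MIC was read.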

The subject of data set [2] is Escherichia coli ATCC BAA-2340 (KPC). Particulars: ATCC BAA-2340. In a few lines:
as §1

The test system of data set [3] is Pseudomonas aeruginosa ATCC 27853. The note with it: ATCC 27853. In a few lines: as §1
Data set [4] deals with Klebsiella pneumoniae KPN+19-15. The note with it: KPN+19-15. In short, it runs like this:
as §1

In data set [5] the test system is Acinetobacter baumannii ABA19-1. The note with it: ABA19-1. In short, it runs like this:
as §1

Data set [6] deals with Escherichia coli ATCC BAA-2523. Particulars: ATCC BAA-2523. In short, it runs like this:
as §1

The subject of data set [7] is Acinetobacter baumannii NCTC 13304 (OXA-27). The note with it: NCTC 13304. In a few lines:
as §1

Data set [8] deals with Pseudomonas aeruginosa PAE19-3. Particulars: PAE19-3. In a few lines:
as §1

Data set [9] is described as follows: Nephrotoxicity assay: in vitro cytotoxicity of HK-2 cells by CCK-8 assay. Particulars: human, HK-2 cells (human renal), 72 h incubation with drug-containing medium. In a few lines: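 HK-2 human renal cells in RPMI-1640 with 10% FBS were exposed to compounds at final 12.5–500 µg/mL for 72 h, then CCK-8 for 3 h and OD450 read. Viability was normalised to drug-free wells; IC50 came from logarithmic regression over three repeats, with polymyxin B as positive drug.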

Values after ≈ are worked out from the molar mass of the structure shown. Bridge positions count the residues as written; N and C are the ends. Square brackets hold non-standard residues; d marks the D form. Peptide text beside a SMILES is read from it. * marks the point of attachment. Heptanoyl(6-Me) = CC(C)CCCCC(=O)*; Nonanoyl = CCCCCCCCC(=O)*; X1 = CC[C@H](C)CCCCC(=O)*; Heptanoyl = CCCCCCC(=O)*; Octanoyl = CCCCCCCC(=O)*; Orn = NCCC[C@H](N)C(=O)O; Dab = NCC[C@H](N)C(=O)O; Dap = NC[C@H](N)C(=O)O

Turning to `CC[C@H](C)CCCCC(=O)N[C@@H](CN)C(=O)N[C@H](C(=O)N[C@H](CO)C(=O)N[C@H]1CCNC(=O)[C@H]([C@@H](C)O)NC(=O)[C@H](CCN)NC(=O)[C@H](CCN)NC(=O)[C@H]([C@@H](C)O)NC(=O)[C@@H](Cc2ccccc2)NC(=O)[C@H](CCN)NC1=O)[C@@H](C)O` [Compound 51, (S)-6-methyloctanoyl-Dap-Thr-D-Ser-ring(4-10)[Dab-Dab-D-Phe-Thr-Dab-Dab-Thr]] (X1-[Dap]T[dS][Dab][Dab][dF]T[Dab][Dab]T; lactam 4-C), the MIC in data set [1] was 0.25 µg/mL (≈ 0.215 µM); in [2], ≤0.03 µg/mL; in [3], 64 µg/mL (≈ 55 µM); in [4], 0.5 µg/mL (≈ 0.429 µM); in data set [5], 0.25 µg/mL (≈ 0.215 µM); in data set [6] it was ≤0.03 µg/mL. Further, the MIC is recorded as 0.25 µg/mL (≈ 0.215 µM) in [7] and 4 µg/mL (≈ 3.44 µM) in data set [8]. Moreover, the IC50 at 72 h in data set [9] is > 500 µg/mL.
In the case of `CC(C)CCCCC(=O)N[C@@H](CN)C(=O)N[C@H](C(=O)N[C@H](CO)C(=O)N[C@H]1CCNC(=O)[C@H]([C@@H](C)O)NC(=O)[C@H](CCN)NC(=O)[C@H](CCN)NC(=O)[C@H]([C@@H](C)O)NC(=O)[C@@H](Cc2ccccc2)NC(=O)[C@H](CCN)NC1=O)[C@@H](C)O` [Compound 52, 6-methylheptanoyl-Dap-Thr-D-Ser-ring(4-10)[Dab-Dab-D-Phe-Thr-Dab-Dab-Thr]] ({Heptanoyl(6-Me)}-[Dap]T[dS][Dab][Dab][dF]T[Dab][Dab]T; lactam 4-C), the MIC was 0.25 µg/mL (≈ 0.217 µM) in data set [1]; ≤0.03 µg/mL in [2]; 64 µg/mL (≈ 55.6 µM) in data set [3]; 0.5 µg/mL (≈ 0.435 µM) in data set [4]; 0.25 µg/mL (≈ 0.217 µM) in data set [5]; ≤0.03 µg/mL in data set [6]. Further, the MIC in data set [7] was determined as 0.25 µg/mL (≈ 0.217 µM); in data set [8], 4 µg/mL (≈ 3.48 µM). Moreover, the IC50 at 72 h in data set [9] is > 500 µg/mL.
For `CCCCCCCC(=O)N[C@@H](CN)C(=O)N[C@H](C(=O)N[C@H](CO)C(=O)N[C@H]1CCNC(=O)[C@H]([C@@H](C)O)NC(=O)[C@H](CCN)NC(=O)[C@H](CCN)NC(=O)[C@H]([C@@H](C)O)NC(=O)[C@@H](Cc2ccccc2)NC(=O)[C@H](CCN)NC1=O)[C@@H](C)O` [Compound 53, Octanoyl-Dap-Thr-D-Ser-ring(4-10)[Dab-Dab-D-Phe-Thr-Dab-Dab-Thr]] (Octanoyl-[Dap]T[dS][Dab][Dab][dF]T[Dab][Dab]T; lactam 4-C), the MIC in data set [1] was 0.25 µg/mL (≈ 0.217 µM); in [2], ≤0.03 µg/mL; in data set [3], 64 µg/mL (≈ 55.6 µM); in data set [4], 0.5 µg/mL (≈ 0.435 µM); in [5] it was 0.25 µg/mL (≈ 0.217 µM); in data set [6], ≤0.03 µg/mL. Moreover, the MIC in data set [7] is 0.25 µg/mL (≈ 0.217 µM); in data set [8], 4 µg/mL (≈ 3.48 µM). Moreover, the IC50 at 72 h in data set [9] was > 500 µg/mL.
Consider `CCCCCCC(=O)N[C@@H](CN)C(=O)N[C@H](C(=O)N[C@H](CO)C(=O)N[C@H]1CCNC(=O)[C@H]([C@@H](C)O)NC(=O)[C@H](CCN)NC(=O)[C@H](CCN)NC(=O)[C@H]([C@@H](C)O)NC(=O)[C@@H](Cc2ccccc2)NC(=O)[C@H](CCN)NC1=O)[C@@H](C)O` [Compound 54, Heptanoyl-Dap-Thr-D-Ser-ring(4-10)[Dab-Dab-D-Phe-Thr-Dab-Dab-Thr]] (Heptanoyl-[Dap]T[dS][Dab][Dab][dF]T[Dab][Dab]T; lactam 4-C), for which the MIC in [1] turned out to be 0.25 µg/mL (≈ 0.22 µM); in data set [2] it was 0.03 µg/mL (≈ 0.0264 µM); in [3] it was 64 µg/mL (≈ 56.3 µM); in data set [4] it was 0.5 µg/mL (≈ 0.44 µM); in [5], 0.25 µg/mL (≈ 0.22 µM); in data set [6] it was 0.03 µg/mL (≈ 0.0264 µM). For the same compound, the figures for the MIC in data set [7] and in data set [8] were 0.25 µg/mL (≈ 0.22 µM) and 8 µg/mL (≈ 7.04 µM), respectively. Moreover, the IC50 at 72 h in data set [9] is > 500 µg/mL.
Regarding `CCCCCCCCC(=O)N[C@@H](CN)C(=O)N[C@H](C(=O)N[C@H](CO)C(=O)N[C@H]1CCNC(=O)[C@H]([C@@H](C)O)NC(=O)[C@H](CCN)NC(=O)[C@H](CCN)NC(=O)[C@H]([C@@H](C)O)NC(=O)[C@@H](Cc2ccccc2)NC(=O)[C@H](CCN)NC1=O)[C@@H](C)O` [Compound 55, Nonanoyl-Dap-Thr-D-Ser-ring(4-10)[Dab-Dab-D-Phe-Thr-Dab-Dab-Thr]] (Nonanoyl-[Dap]T[dS][Dab][Dab][dF]T[Dab][Dab]T; lactam 4-C), the MIC in data set [1] came out at 0.25 µg/mL (≈ 0.215 µM); in data set [2], 0.03 µg/mL (≈ 0.0258 µM); in [3] it was 64 µg/mL (≈ 55 µM); in [4], 0.5 µg/mL (≈ 0.429 µM); in data set [5], 0.25 µg/mL (≈ 0.215 µM); in [6], 0.03 µg/mL (≈ 0.0258 µM). Further, the results for the minimal inhibitory concentration (MIC) in data set [7] and in data set [8] were 0.25 µg/mL (≈ 0.215 µM) and 8 µg/mL (≈ 6.87 µM), respectively. The compound also displayed an IC50 at 72 h in [9] of 300 ± 10.8 µg/mL (≈ 258 µM).
Take `CC[C@H](C)CCCCC(=O)N[C@@H](CCCN)C(=O)N[C@H](C(=O)N[C@H](CO)C(=O)N[C@H]1CCNC(=O)[C@H]([C@@H](C)O)NC(=O)[C@H](CCN)NC(=O)[C@H](CCN)NC(=O)[C@H]([C@@H](C)O)NC(=O)[C@@H](Cc2ccccc2)NC(=O)[C@H](CCN)NC1=O)[C@@H](C)O` [Compound 56, (S)-6-methyloctanoyl-Orn-Thr-D-Ser-ring(4-10)[Dab-Dab-D-Phe-Thr-Dab-Dab-Thr]] (X1-[Orn]T[dS][Dab][Dab][dF]T[Dab][Dab]T; lactam 4-C): the MIC in data set [1] worked out at 0.25 µg/mL (≈ 0.21 µM); in data set [2], 0.125 µg/mL (≈ 0.105 µM); in data set [3], 64 µg/mL (≈ 53.7 µM); in data set [4], 0.5 µg/mL (≈ 0.419 µM); in [5] it was 0.25 µg/mL (≈ 0.21 µM); in data set [6] it was 0.125 µg/mL (≈ 0.105 µM). Moreover, the figures for the MIC in [7] and in data set [8] were 0.25 µg/mL (≈ 0.21 µM) and 4 µg/mL (≈ 3.35 µM), respectively. For the same compound, in data set [9], the IC50 at 72 h was > 500 µg/mL.
For the compound `CC(C)CCCCC(=O)N[C@@H](CCCN)C(=O)N[C@H](C(=O)N[C@H](CO)C(=O)N[C@H]1CCNC(=O)[C@H]([C@@H](C)O)NC(=O)[C@H](CCN)NC(=O)[C@H](CCN)NC(=O)[C@H]([C@@H](C)O)NC(=O)[C@@H](Cc2ccccc2)NC(=O)[C@H](CCN)NC1=O)[C@@H](C)O` [Compound 57, 6-methylheptanoyl-Orn-Thr-D-Ser-ring(4-10)[Dab-Dab-D-Phe-Thr-Dab-Dab-Thr]] ({Heptanoyl(6-Me)}-[Orn]T[dS][Dab][Dab][dF]T[Dab][Dab]T; lactam 4-C), the MIC in data set [1] is given as 0.25 µg/mL (≈ 0.212 µM); in [2] it was 0.125 µg/mL (≈ 0.106 µM); in data set [3], 64 µg/mL (≈ 54.3 µM); in data set [4], 0.5 µg/mL (≈ 0.424 µM); in [5], 0.25 µg/mL (≈ 0.212 µM); in [6] it was 0.125 µg/mL (≈ 0.106 µM). Also, the MIC was 0.25 µg/mL (≈ 0.212 µM) in data set [7] and 4 µg/mL (≈ 3.39 µM) in data set [8]. In [9], the 50% inhibitory concentration (IC50) at 72 h was > 500 µg/mL.
As for `CCCCCCCC(=O)N[C@@H](CCCN)C(=O)N[C@H](C(=O)N[C@H](CO)C(=O)N[C@H]1CCNC(=O)[C@H]([C@@H](C)O)NC(=O)[C@H](CCN)NC(=O)[C@H](CCN)NC(=O)[C@H]([C@@H](C)O)NC(=O)[C@@H](Cc2ccccc2)NC(=O)[C@H](CCN)NC1=O)[C@@H](C)O` [Compound 58, Octanoyl-Orn-Thr-D-Ser-ring(4-10)[Dab-Dab-D-Phe-Thr-Dab-Dab-Thr]] (Octanoyl-[Orn]T[dS][Dab][Dab][dF]T[Dab][Dab]T; lactam 4-C), the MIC in data set [1] was found to be 0.25 µg/mL (≈ 0.212 µM); in data set [2], 0.125 µg/mL (≈ 0.106 µM); in data set [3], 64 µg/mL (≈ 54.3 µM); in data set [4], 0.5 µg/mL (≈ 0.424 µM); in data set [5] it was 0.25 µg/mL (≈ 0.212 µM); in [6], 0.125 µg/mL (≈ 0.106 µM). Also, the MIC in [7] is 0.25 µg/mL (≈ 0.212 µM); in data set [8] it was 4 µg/mL (≈ 3.39 µM). In addition, the IC50 at 72 h in data set [9] was > 500 µg/mL.
As for `CCCCCCC(=O)N[C@@H](CCCN)C(=O)N[C@H](C(=O)N[C@H](CO)C(=O)N[C@H]1CCNC(=O)[C@H]([C@@H](C)O)NC(=O)[C@H](CCN)NC(=O)[C@H](CCN)NC(=O)[C@H]([C@@H](C)O)NC(=O)[C@@H](Cc2ccccc2)NC(=O)[C@H](CCN)NC1=O)[C@@H](C)O` [Compound 59, Heptanoyl-Orn-Thr-D-Ser-ring(4-10)[Dab-Dab-D-Phe-Thr-Dab-Dab-Thr]] (Heptanoyl-[Orn]T[dS][Dab][Dab][dF]T[Dab][Dab]T; lactam 4-C), the MIC in data set [1] is recorded as 0.25 µg/mL (≈ 0.215 µM); in data set [2], 0.25 µg/mL (≈ 0.215 µM); in data set [3] it was 64 µg/mL (≈ 55 µM); in [4], 0.5 µg/mL (≈ 0.429 µM); in [5], 0.25 µg/mL (≈ 0.215 µM); in data set [6], 0.25 µg/mL (≈ 0.215 µM). Besides, the MIC in data set [7] is 0.25 µg/mL (≈ 0.215 µM); in data set [8], 8 µg/mL (≈ 6.87 µM). Moreover, the IC50 at 72 h in data set [9] was > 500 µg/mL.
